Numbers after ± are expanded uncertainties.
Key:
[1] = Molar enthalpy of transition or fusion; conditions: Crystal; DSC
[2] = DTA

Compound	Molar enthalpy of transition or fusion [1] [kcal/mol]	Normal melting temperature ([2]; Crystal) [°C]	Normal melting temperature ([2]; Crystal 1) [°C]
CC(C(=O)O)C(C)C(=O)O (configuration not stated) [2,3-dimethyl-1,4-butanedioic acid]	4.04 ± 0.167	119.4 ± 2	
O=C(O)CCCCC(=O)O [1,6-hexanedioic acid]	8.41 ± 0.382	153.2 ± 2	
O=C(O)CCCCCC(=O)O [1,7-heptanedioic acid]	6.88 ± 0.287	104.2 ± 2	
CC(CC(=O)O)CC(=O)O [3-methylpentanedioic acid]	7.39 ± 0.287		85.5 ± 2
CC(C)(CC(=O)O)C(=O)O [2,2-dimethyl-1,4-butanedioic acid]	9.11 ± 0.287		138 ± 2
O=C(O)CCCC(=O)O [1,5-pentanedioic acid]	5.14 ± 0.215	96.0 ± 2	

Reference: the NIST ThermoML archive (doi:10.1021/je200800f)
